The source of these data is patent US9067932B2, “Pyrazolopyridine kinase inhibitors” (Vertex Pharmaceuticals Incorporated, priority 2010, dated 2015).

Molecules are shown by their SMILES. Bounds are passed on as bounds.

Holding throughout (format): biochemical
Assay [1] concerns the target PKC theta kinase (Homo sapiens, UniProt Q04759). Put plainly: PKC theta coupled-enzyme (NADH consumption) kinase assay. The note with it: 18 nM PKC theta, 240 μM ATP, 30° C., initial rate at 340 nm; read-out: Ki PKC theta. On the procedure: (§1) An assay buffer solution was prepared which consisted of 100 mM HEPES (pH 7.5), 10 mM MgCl2, 25 mM NaCl, 0.1 mM EDTA and 0.01% Brij. […] To 60 μL of this enzyme buffer, in a 384 well plate, was added 2 μL of VRT stock solution in DMSO. […] The enzyme reaction was initiated by the addition of 5 μL stock ATP solution prepared in assay buffer to a final assay concentration of 240 μM. Initial rate data was determined from the rate of change of absorbance at 340 nm (corresponding to stoichiometric consumption of NADH) using a Molecular Devices Spectramax plate reader (Sunnyvale, Calif.) over 15 mins at 30° C. For each Ki determination 12 data points covering the VRT concentration range of 0-20 μM were obtained in duplicate (DMSO stocks were prepared from an initial 10 mM VRT stock with subsequent 1:2 serial dilutions). Ki values were calculated from initial rate data by non-linear regression using the Prism software package (Prism 4.0a, Graphpad Software, San Diego, Calif.).

The target in assay [2] is PKC delta kinase (Homo sapiens, UniProt Q05655). Put plainly: PKC delta coupled-enzyme (NADH consumption) kinase assay. The note with it: 46 nM PKC delta, 150 μM ATP, 30° C., initial rate at 340 nm. On the procedure: as §1, with “To 16” for “To 60”, “added 1” for “added 2”, “of 16” for “of 5”, “of 150” for “of 240”
The target of assay [3] is PKC alpha kinase (Homo sapiens, UniProt P17252). Put plainly: PKC alpha coupled-enzyme (NADH consumption) kinase assay. The note with it: 4.5 nM PKC alpha, 130 μM ATP, 100 μM CaCl2, 30° C.; read-out: Ki PKC alpha. On the procedure: An assay buffer solution was prepared which consisted of 100 mM HEPES (pH 7.5), 10 mM MgCl2, 25 mM NaCl, 0.1 mM EDTA, 100 μM CaCl2 and 0.01% Brij. An enzyme buffer containing reagents to final assay concentrations of 0.002% Triton X-100, 100 μg/mL Phosphatidylserine, 20 μg/mL Diacylglycerol, 360 μM NADH, 3 mM phosphoenolpyruvate, 70 μg/mL pyruvate kinase, 24 μg/mL lactate dehydrogenase, 2 mM DTT, 150 μM substrate peptide ([…] SEQ ID NO. 1) and 4.5 nM PKC alpha kinase was prepared in assay buffer. To 16 μL of this enzyme buffer, in a 384 well plate, was added 1 μL of VRT stock solution in DMSO. The mixture was allowed to equilibrate for 10 mins at 30° C. The enzyme reaction was initiated by the addition of 16 μL stock ATP solution prepared in assay buffer to a final assay concentration of 130 μM. Initial rate data was determined from the rate of change of absorbance at 340 nm (corresponding to stoichiometric consumption of NADH) using a Molecular Devices Spectramax plate reader (Sunnyvale, Calif.) over 15 mins at 30° C. For each Ki determination 12 data points covering the VRT concentration range of 0-20 μM were obtained in duplicate (DMSO stocks were prepared from an initial 10 mM VRT stock with subsequent 1:2 serial dilutions). Ki values were calculated from initial rate data by non-linear regression using the Prism software package (Prism 4.0a, Graphpad Software, San Diego, Calif.).

Sequence of PKC delta kinase (Q05655 whole entry): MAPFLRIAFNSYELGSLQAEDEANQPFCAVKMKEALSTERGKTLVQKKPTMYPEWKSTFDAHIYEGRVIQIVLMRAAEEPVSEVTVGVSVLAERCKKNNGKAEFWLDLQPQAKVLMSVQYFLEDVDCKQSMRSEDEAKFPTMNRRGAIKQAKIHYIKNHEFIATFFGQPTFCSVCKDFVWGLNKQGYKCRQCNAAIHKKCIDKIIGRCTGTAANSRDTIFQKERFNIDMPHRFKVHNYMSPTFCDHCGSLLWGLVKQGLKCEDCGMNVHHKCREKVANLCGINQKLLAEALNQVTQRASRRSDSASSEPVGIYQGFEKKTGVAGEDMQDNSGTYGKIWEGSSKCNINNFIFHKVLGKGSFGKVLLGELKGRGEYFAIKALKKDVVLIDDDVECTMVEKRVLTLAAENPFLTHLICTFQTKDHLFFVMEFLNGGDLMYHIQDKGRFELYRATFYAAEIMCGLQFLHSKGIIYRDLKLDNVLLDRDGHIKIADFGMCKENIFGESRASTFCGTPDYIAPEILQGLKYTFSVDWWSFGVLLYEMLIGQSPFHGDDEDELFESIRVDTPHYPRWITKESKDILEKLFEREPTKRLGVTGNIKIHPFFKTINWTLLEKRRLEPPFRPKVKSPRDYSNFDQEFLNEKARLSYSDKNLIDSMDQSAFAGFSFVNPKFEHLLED
Sequence of PKC theta kinase (Q04759 whole entry): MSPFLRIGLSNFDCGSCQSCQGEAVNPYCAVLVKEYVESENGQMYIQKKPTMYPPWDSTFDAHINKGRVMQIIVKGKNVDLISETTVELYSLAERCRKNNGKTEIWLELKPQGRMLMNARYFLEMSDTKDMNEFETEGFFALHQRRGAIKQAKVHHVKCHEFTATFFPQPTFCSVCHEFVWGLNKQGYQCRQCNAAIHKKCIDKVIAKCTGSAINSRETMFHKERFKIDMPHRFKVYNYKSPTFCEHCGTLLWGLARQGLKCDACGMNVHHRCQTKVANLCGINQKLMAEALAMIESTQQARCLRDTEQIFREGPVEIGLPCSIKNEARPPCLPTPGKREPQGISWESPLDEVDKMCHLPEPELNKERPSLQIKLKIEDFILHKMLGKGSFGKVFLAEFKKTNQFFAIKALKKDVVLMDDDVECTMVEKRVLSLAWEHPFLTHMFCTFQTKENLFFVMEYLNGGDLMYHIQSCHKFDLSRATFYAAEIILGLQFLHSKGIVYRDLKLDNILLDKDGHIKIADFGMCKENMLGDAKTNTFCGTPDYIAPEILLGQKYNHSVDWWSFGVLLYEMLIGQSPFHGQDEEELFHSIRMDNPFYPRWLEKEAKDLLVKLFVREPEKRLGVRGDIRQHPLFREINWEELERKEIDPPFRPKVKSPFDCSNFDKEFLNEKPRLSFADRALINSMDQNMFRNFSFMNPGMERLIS

The Ki is the equilibrium dissociation constant of an inhibitor or competing ligand from its target. In the case of `CC(C)C(O)C1CN(c2nc(-c3n[nH]c4ncccc34)c(F)cc2Cl)CCN1` (stereo not drawn) [Compound 21], the results for the Ki in assay [1], in assay [2] and in assay [3] were less than 50 nM, less than 500 nM and less than 2800 nM, respectively.
For `CC[C@H](O)[C@@H]1CN(c2nc(-c3n[nH]c4ncccc34)c(F)cc2F)CCN1` [Compound 25], the inhibition constant Ki in assay [1] was less than 50 nM; in assay [2], less than 500 nM; in assay [3], more than 1250 nM.
As to `CC(C)C(O)C1CN(c2nc(-c3n[nH]c4ncccc34)c(F)cc2Cl)CCN1` (stereo not drawn) [Compound 20], the inhibitory constant (Ki) in assay [1] is less than 1 nM; in assay [2], less than 50 nM; in assay [3], less than 500 nM.
For `CC(C)(C)C(O)C1CN(c2nc(-c3n[nH]c4ncccc34)c(F)cc2F)CCN1` (stereo not drawn) [Compound 27], the Ki is less than 1 nM in assay [1], less than 10 nM in assay [2] and less than 500 nM in assay [3].
For the molecule `CC(C)C(N)[C@H]1CCN(c2nc(-c3n[nH]c4ncccc34)c(F)cc2Cl)C1` (stereo partly drawn) [Compound 23], the Ki was less than 1 nM in assay [1], less than 50 nM in assay [2] and less than 500 nM in assay [3].
On to `CC(CO)[C@@](C)(O)[C@@H]1CN(c2nc(-c3n[nH]c4ncccc34)c(F)cc2F)CCN1` (stereo partly drawn) [Compound 39], for which the Ki was less than 50 nM in assay [1], less than 500 nM in assay [2] and more than 1250 nM in assay [3].
Regarding `CC(O)(C1CC1)C1CN(c2nc(-c3n[nH]c4ncccc34)c(F)cc2Cl)CCN1` (stereo not drawn) [Compound 30], the Ki is less than 1 nM in assay [1], less than 10 nM in assay [2] and less than 500 nM in assay [3].
With `CC(O)(C1CC1)C1CN(c2nc(-c3n[nH]c4ncccc34)c(F)cc2F)CCN1` (stereo not drawn) [Compound 4], the figures for the Ki in assay [1], in assay [2] and in assay [3] were less than 1 nM, less than 500 nM and more than 1250 nM, respectively.
On to `CCC(O)C1CN(c2nc(-c3n[nH]c4ncccc34)c(F)cc2Cl)CCN1` (stereo not drawn) [Compound 19], for which the inhibition constant (Ki) is less than 1 nM in assay [1], less than 50 nM in assay [2] and less than 2800 nM in assay [3].
On to `CC(C)(C)C(O)C1CN(c2nc(-c3n[nH]c4ncccc34)c(F)cc2Cl)CCN1` (stereo not drawn) [Compound 26], for which the Ki in assay [1] was less than 1 nM; in assay [2] it was less than 10 nM; in assay [3], less than 500 nM.
Regarding `CC(C)(F)C(C)(O)C1CN(c2nc(-c3n[nH]c4ncccc34)c(F)cc2F)CCN1` (stereo not drawn) [Compound 11], the results for the inhibition constant Ki in assay [1], in assay [2] and in assay [3] were less than 1 nM, less than 10 nM and less than 2800 nM, respectively.
On the same counts, the results for `CCC(O)C1CN(c2nc(-c3n[nH]c4ncccc34)c(F)cc2Cl)CCN1` (stereo not drawn) [Compound 18] are less than 50 nM, less than 500 nM and more than 1250 nM.
